Measured values from patent publication US6914045B2, “Glycopeptide antibiotics” (Wyeth Holdings Corporation, priority 2001, dated 2005).
In brackets after ≈: the same amount, converted by molar mass.

Assays:
Assay in all cases: in vitro antibacterial evaluation, MIC by broth dilution
Assay type in all cases: cell-based
Enterococcus sp. = details: broth dilution, 18 hours at 35° C.
In short: (§1)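 Broth dilution per NCCLS standard M7-A2 in Muller-Hinton II […], with an inoculum of 5×10^5 CFU/mL and antibiotic spanning 64-0.06 μg/mL. The MIC is the lowest concentration that inhibits growth of the organism.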

Streptococcus sp. = details: broth dilution, 18 hours at 35° C.
In short: as §1

Staphylococcus sp. = details: broth dilution, 18 hours at 35° C.
In short: as §1

Escherichia coli = details: 18 hours at 35° C.

CC(c1ccccc1)C1NC(=O)CNC(=O)C(CO)NC(=O)C(CC2CNC(=N)N2C2OC(CO)C(O)C(O)C2O)NC(=O)C(CC2CNC(=N)N2)NC(=O)C(Cc2ccc(OC3OC(CO)C(OC4OC(CO)C(O)C(OCc5ccc(OCc6ccccc6)cc5)C4O)C(O)C3O)cc2)NC1=O (stereo not shown) [Example 246b]
MIC Enterococcus avium (GC 4558) (Enterococcus sp.): 64 µg/mL (≈ 43.8 µM) | MIC Enterococcus faecalis (ATCC 29212) (Enterococcus sp.): 128 µg/mL (≈ 87.7 µM) | MIC Enterococcus faecalis (GC 2242) (Enterococcus sp.): 128 µg/mL (≈ 87.7 µM) | MIC Enterococcus faecalis (GC 2691) (Enterococcus sp.): 128 µg/mL (≈ 87.7 µM) | MIC Enterococcus faecalis (GC 3059) (Enterococcus sp.): 128 µg/mL (≈ 87.7 µM) | MIC Enterococcus faecalis (GC 4552) (Enterococcus sp.): 128 µg/mL (≈ 87.7 µM) | MIC Enterococcus faecalis (GC 4553) (Enterococcus sp.): 128 µg/mL (≈ 87.7 µM) | MIC Enterococcus faecalis (GC 4554) (Enterococcus sp.): >128 µg/mL | MIC Enterococcus faecalis (GC 6189) (Enterococcus sp.): 128 µg/mL (≈ 87.7 µM) | MIC Enterococcus faecium (GC 2243) (Enterococcus sp.): 128 µg/mL (≈ 87.7 µM) | MIC Enterococcus faecium (GC 4556) (Enterococcus sp.): 128 µg/mL (≈ 87.7 µM) | MIC Enterococcus faecium (GC 4557) (Enterococcus sp.): 32 µg/mL (≈ 21.9 µM) | MIC Enterococcus faecalis (ATCC 29212) (Enterococcus sp.; strain ATCC 29212): 128 µg/mL (≈ 87.7 µM) | MIC Enterococcus faecalis (GC 2242) (Enterococcus sp.; strain GC 2242): 128 µg/mL (≈ 87.7 µM) | MIC Enterococcus faecium (GC 2243) (Enterococcus sp.; strain GC 2243): 128 µg/mL (≈ 87.7 µM) | MIC Enterococcus faecalis (GC 2691) (Enterococcus sp.; strain GC 2691): 128 µg/mL (≈ 87.7 µM) | MIC Enterococcus faecalis (GC 3059) (Enterococcus sp.; strain GC 3059): 128 µg/mL (≈ 87.7 µM) | MIC Enterococcus faecalis (GC 4552) (Enterococcus sp.; strain GC 4552): 128 µg/mL (≈ 87.7 µM) | MIC Enterococcus faecalis (GC 4553) (Enterococcus sp.; strain GC 4553): 128 µg/mL (≈ 87.7 µM) | MIC Enterococcus faecalis (GC 4554) (Enterococcus sp.; strain GC 4554): >128 µg/mL | MIC Enterococcus faecium (GC 4556) (Enterococcus sp.; strain GC 4556): 128 µg/mL (≈ 87.7 µM) | MIC Enterococcus faecium (GC 4557) (Enterococcus sp.; strain GC 4557): 32 µg/mL (≈ 21.9 µM) | MIC Enterococcus avium (GC 4558) (Enterococcus sp.; strain GC 4558): 64 µg/mL (≈ 43.8 µM) | MIC Enterococcus faecalis (GC 6189) (Enterococcus sp.; strain GC 6189): 128 µg/mL (≈ 87.7 µM) | MIC Streptococcus agalactiae (GC 4564) (Streptococcus sp.): 64 µg/mL (≈ 43.8 µM) | MIC Streptococcus pneumoniae (ATCC 6301) (Streptococcus sp.): 32 µg/mL (≈ 21.9 µM) | MIC Streptococcus pneumoniae (GC 1894) (Streptococcus sp.): 32 µg/mL (≈ 21.9 µM) | MIC Streptococcus pneumoniae (GC 4565) (Streptococcus sp.): 64 µg/mL (≈ 43.8 µM) | MIC Streptococcus pyogenes (GC 4563) (Streptococcus sp.): 64 µg/mL (≈ 43.8 µM) | MIC Streptococcus pneumoniae (ATCC 6301) (Streptococcus sp.; strain ATCC 6301): 32 µg/mL (≈ 21.9 µM) | MIC Streptococcus pneumoniae (GC 1894) (Streptococcus sp.; strain GC 1894): 32 µg/mL (≈ 21.9 µM) | MIC Streptococcus pyogenes (GC 4563) (Streptococcus sp.; strain GC 4563): 64 µg/mL (≈ 43.8 µM) | MIC Streptococcus agalactiae (GC 4564) (Streptococcus sp.; strain GC 4564): 64 µg/mL (≈ 43.8 µM) | MIC Streptococcus pneumoniae (GC 4565) (Streptococcus sp.; strain GC 4565): 64 µg/mL (≈ 43.8 µM) | MIC Coagulase Negative Staphylococcus (GC 4547) (Staphylococcus sp.): 64 µg/mL (≈ 43.8 µM) | MIC Coagulase Negative Staphylococcus (GC 4548) (Staphylococcus sp.): 64 µg/mL (≈ 43.8 µM) | MIC Coagulase Negative Staphylococcus (GC 4549) (Staphylococcus sp.): 32 µg/mL (≈ 21.9 µM) | MIC Coagulase Negative Staphylococcus (GC 4551) (Staphylococcus sp.): 64 µg/mL (≈ 43.8 µM) | MIC Coagulase Negative Staphylococcus (GC 6257) (Staphylococcus sp.): 64 µg/mL (≈ 43.8 µM) | MIC Staphylococcus aureus (ATCC 29213) (Staphylococcus sp.): 64 µg/mL (≈ 43.8 µM) | MIC Staphylococcus aureus (GC 1131) (Staphylococcus sp.): 128 µg/mL (≈ 87.7 µM) | MIC Staphylococcus aureus (GC 3051) (Staphylococcus sp.): 64 µg/mL (≈ 43.8 µM) | MIC Staphylococcus aureus (GC 3053) (Staphylococcus sp.): 128 µg/mL (≈ 87.7 µM) | MIC Staphylococcus aureus (GC 4541) (Staphylococcus sp.): 64 µg/mL (≈ 43.8 µM) | MIC Staphylococcus aureus (GC 4542) (Staphylococcus sp.): 64 µg/mL (≈ 43.8 µM) | MIC Staphylococcus aureus (GC 4544) (Staphylococcus sp.): 64 µg/mL (≈ 43.8 µM) | MIC Staphylococcus aureus (GC 4545) (Staphylococcus sp.): 64 µg/mL (≈ 43.8 µM) | MIC Staphylococcus aureus-SMITH (GC 4543) (Staphylococcus sp.): 64 µg/mL (≈ 43.8 µM) | MIC Staphylococcus haemolyticus (GC 4546) (Staphylococcus sp.): 128 µg/mL (≈ 87.7 µM) | MIC Staphylococcus aureus (ATCC 29213) (Staphylococcus sp.; strain ATCC 29213): 64 µg/mL (≈ 43.8 µM) | MIC Staphylococcus aureus (GC 1131) (Staphylococcus sp.; strain GC 1131): 128 µg/mL (≈ 87.7 µM) | MIC Staphylococcus aureus (GC 3051) (Staphylococcus sp.; strain GC 3051): 64 µg/mL (≈ 43.8 µM) | MIC Staphylococcus aureus (GC 3053) (Staphylococcus sp.; strain GC 3053): 128 µg/mL (≈ 87.7 µM) | MIC Staphylococcus aureus (GC 4541) (Staphylococcus sp.; strain GC 4541): 64 µg/mL (≈ 43.8 µM) | MIC Staphylococcus aureus (GC 4542) (Staphylococcus sp.; strain GC 4542): 64 µg/mL (≈ 43.8 µM) | MIC Staphylococcus aureus-SMITH (GC 4543) (Staphylococcus sp.; strain GC 4543): 64 µg/mL (≈ 43.8 µM) | MIC Staphylococcus aureus (GC 4544) (Staphylococcus sp.; strain GC 4544): 64 µg/mL (≈ 43.8 µM) | MIC Staphylococcus aureus (GC 4545) (Staphylococcus sp.; strain GC 4545): 64 µg/mL (≈ 43.8 µM) | MIC Staphylococcus haemolyticus (GC 4546) (Staphylococcus sp.; strain GC 4546): 128 µg/mL (≈ 87.7 µM) | MIC Coagulase Negative Staphylococcus (GC 4547) (Staphylococcus sp.; strain GC 4547): 64 µg/mL (≈ 43.8 µM) | MIC Coagulase Negative Staphylococcus (GC 4548) (Staphylococcus sp.; strain GC 4548): 64 µg/mL (≈ 43.8 µM) | MIC Coagulase Negative Staphylococcus (GC 4549) (Staphylococcus sp.; strain GC 4549): 32 µg/mL (≈ 21.9 µM) | MIC Coagulase Negative Staphylococcus (GC 4551) (Staphylococcus sp.; strain GC 4551): 64 µg/mL (≈ 43.8 µM) | MIC Coagulase Negative Staphylococcus (GC 6257) (Staphylococcus sp.; strain GC 6257): 64 µg/mL (≈ 43.8 µM) | MIC Escherichia coli (ATCC 25922) (Escherichia coli): >128 µg/mL | MIC Escherichia coli (GC 4559) (Escherichia coli): >128 µg/mL | MIC Escherichia coli (GC 4560) (Escherichia coli): 32 µg/mL (≈ 21.9 µM)
